Test results: patent US11352371B2, “Thienopyrimidine derivatives as ACC inhibitors and uses thereof” (Gilead Sciences, Inc., priority 2019, dated 2022)

Legend:
[1] = system: HepG2 cells; test: In vitro De Novo Lipogenesis (DNL) assay, 13C-acetate incorporation into palmitic acid; format: cell-based; settings: Homo sapiens, 1 hour preincubation, 24 hours with 10 mM 13C-labeled acetate
Experimental: De Novo Lipogenesis (DNL) was measured in vitro in HepG2 cells by quantifying the incorporation of ^13C-labeled acetate into palmitic acid.
HepG2 cells were plated in growth medium (DMEM (Corning cat #15-018-CM) supplemented with 10% FBS (HyClone cat #SH30071-03), and 1× penicillin, streptomycin, glutamine (Corning cat #30-009-CI)) at 10,000 cells/well in a 384-well cell culture-treated plate (Greiner cat #781091). The cells were then incubated overnight at 37° C., 5% CO2. The next day, the cells were washed twice with sterile DPBS (Corning cat #21-031-CM) and the culture medium was changed to fresh growth medium. The compounds of interest were dosed to cells, followed by a 1 hour incubation at 37° C., 5% CO2. ^13C-labeled acetate (Sigma-Aldrich cat #279315-1G) was added to the culture medium at a concentration of 10 mM and the cells were incubated for 24 hours at 37° C., 5% CO2.
In order to analyze the lipid content of the HepG2 cells, the culture medium was removed and the cells were lysed by adding 30 μL of 0.1 M NaOH. After 5 minutes of incubation at room temperature, 15 μL of cell lysate was transferred to a 384-well deep-well plate (Sigma-Aldrich cat #BR701355-48EA) containing 15 μL of 7.3% KOH in ethanol and mixed. This plate was sealed and incubated at 70° C. for 4 hours to hydrolyze the lipids to free fatty acids. 100 μL of acetonitrile was then added and the plate was spun at 3,700 g for 20 minutes to separate the organic and aqueous phases. 50 μL from the top (organic) phase was transferred to a new 384-well plate (NUNC cat #264573) and the samples were analyzed by mass spectrometry using a RapidFire coupled to a QTOF mass spectrometer. The sum of the area under curve (AUC) for palmitate containing 3 to 7 ^13C was normalized with the AUC of oleate and plotted against compound concentration to determine the potency of ACC inhibitors. […]

[2] = Rat liver/plasma ratio determination; format: in vivo, male Sprague-Dawley (SD) rats; settings: male SD rats, single oral dose 5 mg/kg or 10 mg/kg; for L/P Ratio (2 h): liver to plasma concentration 2 hours after dosing; for L/P Ratio (24 h): liver to plasma concentration 24 hours after dosing
Experimental: Liver to plasma (L/P) ratios of certain example compounds were determined in male Sprague-Dawley (SD) rats 2 hours and 24 hours after their administration.
The in vivo phases of the rat L/P ratio determinations for example compounds were conducted at Covance Laboratories (Madison, Wis.) or Charles River Laboratories (Worcester, Wash.). Animals were housed and handled in accordance with the Guide for the Care and Use of Laboratory Animals, Institute of Laboratory Animal Resources. The protocols were reviewed and approved by Institutional Animal Care and Use Committees (IACUC). Male Sprague-Dawley (SD) rats weighing approximately 300 g were fasted overnight prior to dosing and up to 4 hours after dosing. Each example compound was dosed at a single dose at 5 mg/kg or 10 mg/kg orally by gavage to male SD rats (n=3 rats/group). The aqueous formulation contained ethyl alcohol and polyethylene glycol 300. Approximately 100 μL plasma and 0.5 g liver samples were collected from each animal either 2 hours or 24 hours after dosing. The liver samples were homogenized by hard tissue homogenizer probes (Omni International, Kennesaw, Ga.) with 4× extraction buffer. For LC-MS/MS analysis, plasma and liver samples were prepared through protein precipitation extraction and analyzed on a Scitex API 5500 or 6500 LC-MS/MS instrument (Applied Biosystems, Foster City, Calif.). Analyte was eluted on a 1.7 μm 50×2.1 mm Acquity UPLC BEH C18 column (Waters, Milford, Mass.) using mobile phase containing 0.1% formic acid and a linear gradient from 55% to 95% acetonitrile at a flow rate of 800 μL/min. A liver/plasma ratio for each compound was calculated using the liver and plasma concentrations at the corresponding time point (2 hours or 24 hours). Noncompartmental pharmacokinetic parameters were calculated using Phoenix 32 (Pharsight Corporation, Mountain View, Calif.).
To assess the liver loading potential of the compounds, rat liver/plasma ratios (Rat L/P Ratio) values were determined for example compounds and are listed below in Table 1 for 2 hour and 24 hour timepoints (Rat L/P Ratio (2h/24h)).

SMILES | EC50 [1] [nM] | L/P Ratio (2 h) [2] | L/P Ratio (24 h) [2]
COc1ccccc1[C@H](Cn1c(=O)n(C2(C(=O)NS(=O)(=O)C3(C)CC3)CC2)c(=O)c2c(C)c(-c3ncco3)sc21)O[C@@H]1C[C@H]2CC[C@@H](C1)O2 [Example 12, 1-(1-((R)-2-(((1R,3s,5S)-8-oxabicyclo[3.2.1]octan-3-yl)oxy)-2-(2-methoxyphenyl)ethyl)-5-methyl-6-(oxazol-2-yl)-2,4-dioxo-1,4-dihydrothieno[2,3-d]pyrimidin-3(2H)-yl)-N-((1-methylcyclopropyl)sulfonyl)cyclopropane-1-carboxamide] | 1.7 | 145 | 136
Cc1c(-c2ncco2)sc2c1c(=O)n(C(C)(C)C(=O)NS(=O)(=O)C1(C)CC1)c(=O)n2C[C@H](O[C@@H]1C[C@H]2CC[C@@H](C1)O2)c1cc(F)ccc1OC(F)F [Example 6, 2-(1-((R)-2-(((1R,3s,5S)-8-oxabicyclo[3.2.1]octan-3-yl)oxy)-2-(2-(difluoromethoxy)-5-fluorophenyl)ethyl)-5-methyl-6-(oxazol-2-yl)-2,4-dioxo-1,4-dihydrothieno[2,3-d]pyrimidin-3(2H)-yl)-2-methyl-N-((1-methylcyclopropyl)sulfonyl)propanamide] | 4.5 | 442 | 1106
COc1ccc(F)cc1[C@H](Cn1c(=O)n(C(C)(C)C(=O)NS(=O)(=O)C2(C)CC2)c(=O)c2c(C)c(-n3nccn3)sc21)O[C@@H]1C[C@H]2CC[C@@H](C1)O2 [Example 20, 2-(1-((R)-2-(((1R,3s,5S)-8-oxabicyclo[3.2.1]octan-3-yl)oxy)-2-(5-fluoro-2-methoxyphenyl)ethyl)-5-methyl-2,4-dioxo-6-(2H-1,2,3-triazol-2-yl)-1,4-dihydrothieno[2,3-d]pyrimidin-3(2H)-yl)-2-methyl-N-((1-methylcyclopropyl)sulfonyl)propanamide] | 0.3 | 2515 | 2914
